From patent US11759462B2, “Spirocyclic compounds as tryptophan hydroxylase inhibitors” (priority 2013, dated 2023)

Biological target: T1, Recombinant human TPH1 (MBP tagged) (Homo sapiens, UniProt P17752)
T1 construct: cloning full length human TPH1 cDNA in to a bacterial pMAL-c5E expression vector; made in house; host or cells: E. coli BL21 (DE3)
T1 sequence (P17752 1-444): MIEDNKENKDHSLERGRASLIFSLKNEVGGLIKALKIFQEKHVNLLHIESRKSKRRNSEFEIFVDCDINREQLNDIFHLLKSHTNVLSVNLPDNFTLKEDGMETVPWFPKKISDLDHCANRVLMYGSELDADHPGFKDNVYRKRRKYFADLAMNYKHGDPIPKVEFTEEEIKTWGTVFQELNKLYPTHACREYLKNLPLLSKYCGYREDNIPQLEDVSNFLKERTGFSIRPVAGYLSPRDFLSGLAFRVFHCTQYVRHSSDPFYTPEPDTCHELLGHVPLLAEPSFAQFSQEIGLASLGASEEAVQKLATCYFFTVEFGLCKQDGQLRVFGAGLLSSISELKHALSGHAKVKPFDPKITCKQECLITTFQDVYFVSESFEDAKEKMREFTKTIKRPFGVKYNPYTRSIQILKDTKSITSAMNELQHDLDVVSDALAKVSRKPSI
Assay: TPH1 in vitro inhibition assay (kinetic fluorescence)
Format: biochemical
Details: read-out: TPH1 Range (TPH1 inhibition IC50)
In short: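 Final mix: 15 nM MBP-TPH1, 30 μM Trp, 36 μM 6-methyltetrahydropterin, 25 μM ferrous ammonium sulfate, 50 mM MES pH 7.1, 1% DMSO, room temperature.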

Compound	IC50 [nM]
Cc1cc(Cl)cc(-c2cc(Cl)ccc2[C@@H](Oc2cc(N3CCC4(CC3)CN[C@H](C(=O)O)C4)nc(N)n2)C(F)(F)F)c1 [Example 34be, (S)-8-(2-amino-6-((R)-1-(3′,5-dichloro-5′-methyl-[1,1′-biphenyl]-2-yl)-2,2,2-trifluoroethoxy)pyrimidin-4-yl)-2,8-diazaspiro[4.5]decane-3-carboxylic acid]	< 50
Cc1ccn(-c2cc(-c3ccc(CO)c(C)c3)ccc2[C@@H](Oc2cc(N3CCC4(CC3)CN[C@H](C(=O)O)C4)nc(N)n2)C(F)(F)F)n1 [Example 1cr, (S)-8-(2-amino-6-((R)-2,2,2-trifluoro-1-(4′-(hydroxymethyl)-3′-methyl-3-(3-methyl-1H-pyrazol-1-yl)-[1,1′-biphenyl]-4-yl)ethoxy)pyrimidin-4-yl)-2,8-diazaspiro[4.5]decane-3-carboxylic acid]	< 50
CC(C)Oc1ccc(-c2cc(Cl)ccc2[C@@H](Oc2cc(N3CCC4(CC3)CN[C@H](C(=O)O)C4)nc(N)n2)C(F)(F)F)cc1Cl [Example 34ak, (S)-8-(2-amino-6-((R)-1-(3′,5-dichloro-4′-isopropoxy-[1,1′-biphenyl]-2-yl)-2,2,2-trifluoroethoxy)pyrimidin-4-yl)-2,8-diazaspiro[4.5]decane-3-carboxylic acid]	50 to 300
Cc1ccn(-c2cc(-c3ccc(OC(C)C)c(F)c3)ccc2[C@@H](Oc2cc(N3CCC4(CC3)CN[C@H](C(=O)O)C4)nc(N)n2)C(F)(F)F)n1 [Example 1ax, (S)-8-(2-amino-6-((R)-2,2,2-trifluoro-1-(3′-fluoro-4′-isopropoxy-3-(3-methyl-1H-pyrazol-1-yl)-[1,1′-biphenyl]-4-yl)ethoxy)pyrimidin-4-yl)-2,8-diazaspiro[4.5]decane-3-carboxylic acid]	< 50
Cc1ccn(-c2ccc(-c3ccc(C)c(C)c3)cc2[C@@H](Oc2cc(N3CCC4(CC3)CN[C@H](C(=O)O)C4)nc(N)n2)C(F)(F)F)n1 [Example 19e, (S)-8-(2-amino-6-((R)-1-(3′,4′-dimethyl-4-(3-methyl-1H-pyrazol-1-yl)-[1,1′-biphenyl]-3-yl)-2,2,2-trifluoroethoxy)pyrimidin-4-yl)-2,8-diazaspiro[4.5] decane-3-carboxylic acid]	< 50
Cc1ccn(-c2cc(-c3ccc(F)c(F)c3)ccc2[C@@H](Oc2cc(N3CCC4(CC3)CN[C@H](C(=O)O)C4)nc(N)n2)C(F)(F)F)n1 [Example 1ag, (S)-8-(2-amino-6-((R)-1-(3′,4′-difluoro-3-(3-methyl-1H-pyrazol-1-yl)-[1,1′-biphenyl]-4-yl)-2,2,2-trifluoroethoxy)pyrimidin-4-yl)-2,8-diazaspiro[4.5]decane-3-carboxylic acid]	< 50
Cc1ccn(-c2cc(-c3ccc4c(c3)CCCO4)ccc2[C@@H](Oc2cc(N3CCC4(CC3)CN[C@H](C(=O)O)C4)nc(N)n2)C(F)(F)F)n1 [Example 1co, (S)-8-(2-amino-6-((R)-1-(4-(chroman-6-yl)-2-(3-methyl-1H-pyrazol-1-yl)phenyl)-2,2,2-trifluoroethoxy)pyrimidin-4-yl)-2,8-diazaspiro[4.5]decane-3-carboxylic acid]	< 50
CCN(CC)C(=O)c1ccc(-c2ccc([C@@H](Oc3cc(N4CCC5(CC4)CN[C@H](C(=O)O)C5)nc(N)n3)C(F)(F)F)c(-n3ccc(C)n3)c2)cc1 [Example 1cm, (S)-8-(2-amino-6-((R)-1-(4′-(diethylcarbamoyl)-3-(3-methyl-1H-pyrazol-1-yl)-[l,l′-biphenyl]-4-yl)-2,2,2-trifluoroethoxy)pyrimidin-4-yl)-2,8-diazaspiro[4.5]decane-3-carboxylic acid]	< 50
Cc1ccn(-c2cc(-c3cccc(OC(F)(F)F)c3)ccc2[C@@H](Oc2cc(N3CCC4(CC3)CN[C@H](C(=O)O)C4)nc(N)n2)C(F)(F)F)n1 [Example 1as, (S)-8-(2-amino-6-((R)-2,2,2-trifluoro-1-(3-(3-methyl-1H-pyrazol-1-yl)-3'-(trifluoromethoxy)-[1,1′-biphenyl]-4-yl)ethoxy)pyrimidin-4-yl)-2,8-diazaspiro[4.5]decane-3-carboxylic acid]	< 50
Cc1ccn(-c2cc(-c3cccc(C#N)c3)ccc2[C@@H](Oc2cc(N3CCC4(CC3)CN[C@H](C(=O)O)C4)nc(N)n2)C(F)(F)F)n1 [Example 1w, (S)-8-(2-amino-6-((R)-1-(3′-cyano-3-(3-methyl-1H-pyrazol-1-yl)-[1,1′-biphenyl]-4-yl)-2,2,2-trifluoroethoxy)pyrimidin-4-yl)-2,8-diazaspiro[4.5]decane-3-carboxylic acid]	< 50
Cc1ccn(-c2ccc(-c3ccc(/C=C/C(=O)O)cc3)cc2[C@@H](Oc2cc(N3CCC4(CC3)CN[C@H](C(=O)O)C4)nc(N)n2)C(F)(F)F)n1 [Example 19i, (S)-8-(2-amino-6-((R)-1-(4′-((E)-2-carboxyvinyl)-4-(3-methyl-1H-pyrazol-1-yl)-[1,1′-biphenyl]-3-yl)-2,2,2-trifluoroethoxy)pyrimidin-4-yl)-2,8-diazaspiro[4.5] decane-3-carboxylic acid]	< 50
Cc1ccn(-c2ccc(-c3cccc(CCC(=O)O)c3)cc2[C@@H](Oc2cc(N3CCC4(CC3)CN[C@H](C(=O)O)C4)nc(N)n2)C(F)(F)F)n1 [Example 19j, (S)-8-(2-amino-6-((R)-1-(3′-(2-carboxyethyl)-4-(3-methyl-1H-pyrazol-1-yl)-[1,1′-biphenyl]-3-yl)-2,2,2-trifluoroethoxy)pyrimidin-4-yl)-2,8-diazaspiro[4.5] decane-3-carboxylic acid]	< 50

Second part, the compound after the results:

IC50 [nM]	Compound
50 to 300	Cn1cnc2cc(-c3ccc([C@@H](Oc4cc(N5CCC6(CC5)CN[C@H](C(=O)O)C6)nc(N)n4)C(F)(F)F)cc3)ccc21 [Example 55c, (S)-8-(2-amino-6-((R)-2,2,2-trifluoro-1-(4-(1-methyl-1H-benzo[d]imidazol-5-yl)phenyl)ethoxy)pyrimidin-4-yl)-2,8-diazaspiro[4.5]decane-3-carboxylic acid]
300 to 3000	CC(C)(C)c1ccc(-c2ccc([C@@H](Oc3cc(N4CCC5(CC4)CN[C@H](C(=O)O)C5)nc(N)n3)C(F)(F)F)cc2)cc1 [Example 55ci, (S)-8-(2-amino-6-((R)-1-(4′-(tert-butyl)-[1,1′-biphenyl]-4-yl)-2,2,2-trifluoroethoxy)pyrimidin-4-yl)-2,8-diazaspiro[4.5]decane-3-carboxylic acid]
300 to 3000	CS(=O)(=O)c1ccc(-c2ccc([C@@H](Oc3cc(N4CCC5(CC4)CN[C@H](C(=O)O)C5)nc(N)n3)C(F)(F)F)cc2)cc1 [Example 55cv, (S)-8-(2-amino-6-((R)-2,2,2-trifluoro-1-(4′-(methylsulfonyl)-[1,1′-biphenyl]-4-yl)ethoxy)pyrimidin-4-yl)-2,8-diazaspiro[4.5]decane-3-carboxylic acid]
50 to 300	CCOc1cccc(-c2ccc([C@@H](Oc3cc(N4CCC5(CC4)CN[C@H](C(=O)O)C5)nc(N)n3)C(F)(F)F)cc2)c1 [Example 55au, (S)-8-(2-amino-6-((R)-1-(3′-ethoxy-[1,1′-biphenyl]-4-yl)-2,2,2-trifluoroethoxy)pyrimidin-4-yl)-2,8-diazaspiro[4.5]decane-3-carboxylic acid]
300 to 3000	Nc1nc(O[C@H](c2ccc(-c3ccc4c(c3)OC(=O)CC4)cc2)C(F)(F)F)cc(N2CCC3(CC2)CN[C@H](C(=O)O)C3)n1 [Example 55db, (S)-8-(2-amino-6-((R)-2,2,2-trifluoro-1-(4-(2-oxochroman-7-yl)phenyl)ethoxy)pyrimidin-4-yl)-2,8-diazaspiro[4.5]decane-3-carboxylic acid]
50 to 300	Cn1c(=O)ccc2cc(-c3ccc([C@@H](Oc4cc(N5CCC6(CC5)CN[C@H](C(=O)O)C6)nc(N)n4)C(F)(F)F)cc3)ccc21 [Example 55u, (S)-8-(2-amino-6-((R)-2,2,2-trifluoro-1-(4-(1-methyl-2-oxo-1,2-dihydroquinolin-6-yl)phenyl)ethoxy)pyrimidin-4-yl)-2,8-diazaspiro[4.5]decane-3-carboxylic acid]
300 to 3000	Nc1nc(O[C@H](c2ccc(-c3ccccc3CO)cc2)C(F)(F)F)cc(N2CCC3(CC2)CN[C@H](C(=O)O)C3)n1 [Example 55bu, (S)-8-(2-amino-6-((R)-2,2,2-trifluoro-1-(2′-(hydroxymethyl)-[1,1′-biphenyl]-4-yl)ethoxy)pyrimidin-4-yl)-2,8-diazaspiro[4.5]decane-3-carboxylic acid]
50 to 300	CN1C(=O)CCc2cc(-c3ccc([C@@H](Oc4cc(N5CCC6(CC5)CN[C@H](C(=O)O)C6)nc(N)n4)C(F)(F)F)cc3)ccc21 [Example 55aj, (S)-8-(2-amino-6-((R)-2,2,2-trifluoro-1-(4-(1-methyl-2-oxo-1,2,3,4-tetrahydroquinolin-6-yl)phenyl)ethoxy)pyrimidin-4-yl)-2,8-diazaspiro[4.5]decane-3-carboxylic acid]
300 to 3000	CC(C)Oc1ccc(-c2ccc([C@@H](Oc3cc(N4CCC5(CC4)CN[C@H](C(=O)O)C5)nc(N)n3)C(F)(F)F)c(N3CCNCC3)c2)cc1 [Example 36e, (S)-8-(2-amino-6-((R)-2,2,2-trifluoro-1-(4′-isopropoxy-3-(piperazin-1-yl)-[1,1′-biphenyl]-4-yl)ethoxy)pyrimidin-4-yl)-2,8-diazaspiro[4.5]decane-3-carboxylic acid]
